Patent publication US9695155B2, “Herbicidal substituted pyrimidinyloxy benzene compounds” (E. I. DU PONT DE NEMOURS AND COMPANY, priority 2013, dated 2017)

Experiments:
sedge, umbrella = test: Test C flooded paddy test; type: in vivo, Cyperus difformis; conditions: Flood, scale 0 to 100 (0 no effect, 100 complete control), 13 to 15 days
Method in brief: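 Ratings were visual and made relative to untreated controls after 13 to 15 greenhouse days.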

Italian ryegrass = test: Test A postemergence; type: in vivo, Lolium multiflorum
Method in brief: (§1)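 Compounds in non-phytotoxic solvent with surfactant applied as soil spray preemergence, or postemergence to plants 2-10 cm at one- to two-leaf stage, in loam/sand. After approximately 10 days in greenhouse, injury rated visually versus untreated controls, 0 (no effect) to 100 (complete control).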

ragweed = test: Test A postemergence; type: in vivo, Ambrosia elatior
Method in brief: as §1

[1] = 125 g ai/ha, 0 to 100 scale where 0 is no effect and 100 is complete control
[2] = 500 g ai/ha, 0 to 100 scale where 0 is no effect and 100 is complete control
[3] = 31 g ai/ha, 0 to 100 scale, 0 no effect, 100 complete control
[4] = 1000 g ai/ha, 0 to 100 scale, 0 no effect, 100 complete control
[5] = 125 g ai/ha, 0 to 100 scale, 0 no effect, 100 complete control

Compound	Plant response rating, Sedge, Umbrella (sedge, umbrella; 31 g ai/ha)	Plant response rating, Sedge, Umbrella (sedge, umbrella; 62 g ai/ha)	Plant response rating, Sedge, Umbrella (sedge, umbrella; 125 g ai/ha)	Plant response rating, Sedge, Umbrella (sedge, umbrella; 250 g ai/ha)	Plant response rating, Ryegrass, Italian (Italian ryegrass; [2])	Plant response rating, Ragweed (ragweed; [2])	further results
Clc1cnc(Oc2ccccc2-n2cc(Cl)cn2)nc1 [Compound 3]	0	0	20	70	–	–	–
N#Cc1cccc(Oc2ncc(F)cn2)c1-n1cc(Br)cn1 [Compound 62]	0	50	90	100	–	–	–
Clc1cnc(Oc2cccc(Br)c2-n2cc(Br)cn2)nc1 [Compound 65]	50	65	75	85	–	–	–
FCc1cccc(Oc2ncc(Cl)cn2)c1-n1cc(Br)cn1 [Compound 83]	–	–	–	–	80	80	Plant response rating, Ryegrass, Italian (Italian ryegrass; [1]): 50; Plant response rating, Ragweed (ragweed; [1]): 70
CCOc1cn(-c2c(Br)cccc2Oc2ncc(Cl)cn2)nn1 [Compound 84]	–	–	–	–	80	90	Plant response rating, Ryegrass, Italian (Italian ryegrass; [1]): 50; Plant response rating, Ragweed (ragweed; [1]): 50
FCc1cccc(Oc2ncc(F)cn2)c1-n1cc(C(F)(F)F)cn1 [Compound 118]	–	–	–	–	–	–	Plant response rating, Ryegrass, Italian (Italian ryegrass; [3]): 20; Plant response rating, Ragweed (ragweed; [3]): 70
FCc1cccc(Oc2ncc(Br)cn2)c1-n1cc(C(F)(F)F)cn1 [Compound 120]	0	0	60	85	–	–	Plant response rating, Ryegrass, Italian (Italian ryegrass; [3]): 0; Plant response rating, Ragweed (ragweed; [3]): 30
Clc1cnc(Oc2cccc(Br)c2-n2cc(Br)nn2)nc1 [Compound 129]	–	–	–	–	90	90	Ryegrass, Italian plant response rating (Italian ryegrass; [1]): 50; Ragweed plant response rating (ragweed; [1]): 80
FC(F)(F)Sc1cnn(-c2ccccc2Oc2ncc(Cl)cn2)c1 [Compound 132, 5-chloro-2-[2-[4-(trifluoromethylthio)-1H-pyrazol-1-yl]phenoxy]pyrimidine]	–	–	–	–	60	30	Ryegrass, Italian plant response rating (Italian ryegrass; [1]): 10; Ragweed plant response rating (ragweed; [1]): 10
Cc1cnc(Oc2cccc(C#N)c2-n2cc(I)cn2)nc1 [Compound 136]	–	–	–	–	90	100	Ryegrass, Italian plant response rating (Italian ryegrass; [1]): 30; Ragweed plant response rating (ragweed; [1]): 50
COc1cnn(-c2c(C#N)cccc2Oc2ncc(Cl)cn2)c1 [Compound 137]	–	–	–	–	80	100	Ryegrass, Italian plant response rating (Italian ryegrass; [1]): 20; Ragweed plant response rating (ragweed; [1]): 20
CCCOc1cnn(-c2c(C#N)cccc2Oc2ncc(Cl)cn2)c1 [Compound 150]	0	50	75	85	100	60	Ryegrass, Italian plant response rating (Italian ryegrass; [1]): 40; Ragweed plant response rating (ragweed; [1]): 20
FCc1cn(-c2c(F)cccc2Oc2ncc(Cl)cn2)nn1 [Compound 154]	–	–	–	–	–	–	Plant response rating, Ryegrass, Italian (Italian ryegrass; [4]): 90; Plant response rating, Ragweed (ragweed; [4]): 100
Fc1cccc(Oc2ncc(Cl)cn2)c1-n1cc(C2CC2)nn1 [Compound 155]	–	–	–	–	–	–	Plant response rating, Ryegrass, Italian (Italian ryegrass; [4]): 100; Plant response rating, Ragweed (ragweed; [4]): 100
N#Cc1cnn(-c2c(Oc3ncc(Cl)cn3)cccc2C(F)F)c1 [Compound 236]	0	20	60	80	–	–	–
N#Cc1cccc(Oc2ncc(Cl)cn2)c1-n1cnc(C(F)(F)F)c1 [Compound 252, 3-[(5-chloro-2-pyrimidinyl)oxy]-2-[4-(trifluoromethyl)-1H-imidazol-1-yl]benzonitrile]	–	–	–	–	70	90	Plant response rating, Ryegrass, Italian (Italian ryegrass; [3]): 0; Plant response rating, Ryegrass, Italian (Italian ryegrass; [5]): 40; Plant response rating, Ragweed (ragweed; [3]): 20; Plant response rating, Ragweed (ragweed; [5]): 70
Fc1cccc(Oc2ncc(Cl)cn2)c1-n1cc(OCC(F)(F)F)cn1 [Compound 270]	0	25	60	95	–	–	Plant response rating, Ryegrass, Italian (Italian ryegrass; [3]): 0; Plant response rating, Ryegrass, Italian (Italian ryegrass; [5]): 30; Plant response rating, Ragweed (ragweed; [3]): 0; Plant response rating, Ragweed (ragweed; [5]): 20
N#Cc1cccc(Oc2ncc(Cl)cn2)c1-n1cc(-n2ccc(C(F)(F)F)n2)cn1 [Compound 284]	–	–	–	–	60	20	Plant response rating, Ryegrass, Italian (Italian ryegrass; [5]): 20; Plant response rating, Ragweed (ragweed; [5]): 20
